Test results as given in patent US5482975A, “Adenosine diphosphoribose polymerase binding nitroso aromatic compounds useful as retroviral inactivating agents, anti-retroviral agents and anti-tumor agents” (priority 1993, dated 1996).

Legend:
ADPRT = conditions: cited from earlier work
anti-tumor and anti-HIV = experiment: biological action of nitroso compounds (anti-tumor and anti-HIV, summary); assay type: cell-based; conditions: for anti-tumor and anti-HIV activity: effective even after exposure of cells as short as 30 minutes
HIV-1 = experiment: inhibition of HIV infection, virus titer in stimulated human lymphoblasts; assay type: cell-based; conditions: 30 min exposure, day 10, virus alone 5.25
Experimental: VIII. Anti-HIV action of NOBP, NOBA and NOQ on stimulated human lymphoblasts.
Exposure to the two drugs was only for 30 minutes at the commencement of viral infection, and drugs were never re-added. The results given in Table III provide the ID50 of HIV titer 10 days after infection of cell cultures with HIV.

H9 cells = experiment: [3H] thymidine uptake, H9 cells (FIG. 2B); assay type: cell-based, human; conditions: 10% FCS
[1] = tested on: human leukemia cell lines (855-2, H9, HL-60, K562); experiment: [3H] thymidine uptake, human leukemia cell lines together; assay type: cell-based; conditions: 10 μM; each of the cell lines tested
855-2 cells [2] = experiment: cytocidal activity, MTT assay; assay type: cell-based, human; conditions: 10 μM; 100,000 cells/ml
Experimental: MTT (3-[4,5-[…]]-2,5-diphenyltetrazolium bromide) at 1 mg/ml was then added for 16 hours. The absorbance of the pelleted cell was then measured at 550 nm after adding DMSO to solubilze the cells.

calf thymus ADPRT = target: T1, calf thymus ADPRT (Bos taurus, UniProt P18493); experiment: ADPRT polymerase activity inhibition / inactivation; assay type: biochemical
T1 construct: from tissue; host or cells: calf thymus
Experimental: | Polymerization at 25° C. for 4 minutes.

K562 cells = experiment: [3H] thymidine uptake, K562 cells (FIG. 2D); assay type: cell-based, human; conditions: 10% fetal bovine serum
855-2 cells [3] = experiment: [3H] thymidine uptake / growth, 855-2 cells (FIG. 2A, E, F; FIG. 3); assay type: cell-based, human; conditions: for relative inhibition: 1 μM; for relative inhibition / inhibition / inhibitory effects with different growth factors: 10% fetal bovine serum; for inhibitory effects with different growth factors: AGF or BCGF
Experimental: FIGS. 2A-2F are a composite of graphs displaying the inhibitory effects of the ADRPT ligands on (FIG. 2A) 855-2 cells (a cell line of human B-cell lineage acute lymphoblastic leukemia), (FIG. 2B) H9 cells (a cell line of human T-cell lineage acute lymphoblastic leukemia), FIG. (2C) HL-60 cells (a cell line of human acute nonlymphoblastic leukemia) and (FIG. 2D) K562 cells (a cell line of human chronic myelogenous leukemia). These cells were cultured while under the influence of the growth factors in 10% fetal bovine serum (FCS), whereas in (FIG. 2E) and (FIG. 2F) the 855-2 cells were cultured in the presence of autocrine growth factor activity (AGF) or low molecular weight-B-cell growth factor (BCGF, a T-cell derived lymphokine), respectively.
Experiments using HL-60 cells (FIG. 2C) provided similar conclusions.
855-2 cells that were grown in media with (1) 10% fetal bovine serum, (2) autocrine growth factor (AGF) and (3) low molecular weight-BCGF (a T cell derived lymphokine) were exposed to increasing concentrations of the ADRPT ligands.

855-2 leukemia cells = experiment: growth inhibition of 855-2 cells, comparison with vincristine (FIG. 7); assay type: cell-based, human
Experimental: Vincristine, a highly toxic chemotherapeutic compound, is currently used in the treatment of leukemia and other malignancies. […] Vincristine was tested in doses of 0.1, 1, 10 and 100 μM.

Zn(HIV1-F1) = Zn(HIV1-F1) (Human immunodeficiency virus type 1 lw12.3 isolate, UniProt Q70622); conditions: cited from earlier work
[4] = not told
[5] = tested on: various cancer cells (855-2, HL-60, D32, D37, CRL 7712, 186 medulla, L1210, MDA-468); experiment: functions of various cancer cells in presence of compounds (FIGS. 4-9); assay type: cell-based; conditions: summary statement
Experimental: (§1) Experiments were performed in which the functions of various cancer cells (855-2 and HL-60 leukemia cells, D32, D37 and CRL 7712 glioblastoma cell lines, 186 medulla tumor cell line, L1210 murine leukemia cell line, MDA-468 human breast tumor cell line) and normal cells (neutrophil leukocytes and bone marrow or peripheral blood stream cells) were assessed in the absence or presence of the compounds.

[6] = tested on: normal rhesus bone marrow stem cells; experiment: CFU stem cell toxicity assay (FIG. 5A)
[7] = tested on: normal cells (neutrophil leukocytes and bone marrow or peripheral blood cells)
Experimental: as §1

HL-60 cells = experiment: colony formation (CFU) of leukemic cells in semi-solid medium (FIG. 4); assay type: cell-based, human
Experimental: as §1

855-2 cells [8] = experiment: as above; assay type: cell-based, human
Experimental: as §1

Human Neutrophils = experiment: superoxide generation by human neutrophils; conditions: 10 μM; mean + S.D., n = 11; PMN + PMA

T1 sequence (P18493 whole entry): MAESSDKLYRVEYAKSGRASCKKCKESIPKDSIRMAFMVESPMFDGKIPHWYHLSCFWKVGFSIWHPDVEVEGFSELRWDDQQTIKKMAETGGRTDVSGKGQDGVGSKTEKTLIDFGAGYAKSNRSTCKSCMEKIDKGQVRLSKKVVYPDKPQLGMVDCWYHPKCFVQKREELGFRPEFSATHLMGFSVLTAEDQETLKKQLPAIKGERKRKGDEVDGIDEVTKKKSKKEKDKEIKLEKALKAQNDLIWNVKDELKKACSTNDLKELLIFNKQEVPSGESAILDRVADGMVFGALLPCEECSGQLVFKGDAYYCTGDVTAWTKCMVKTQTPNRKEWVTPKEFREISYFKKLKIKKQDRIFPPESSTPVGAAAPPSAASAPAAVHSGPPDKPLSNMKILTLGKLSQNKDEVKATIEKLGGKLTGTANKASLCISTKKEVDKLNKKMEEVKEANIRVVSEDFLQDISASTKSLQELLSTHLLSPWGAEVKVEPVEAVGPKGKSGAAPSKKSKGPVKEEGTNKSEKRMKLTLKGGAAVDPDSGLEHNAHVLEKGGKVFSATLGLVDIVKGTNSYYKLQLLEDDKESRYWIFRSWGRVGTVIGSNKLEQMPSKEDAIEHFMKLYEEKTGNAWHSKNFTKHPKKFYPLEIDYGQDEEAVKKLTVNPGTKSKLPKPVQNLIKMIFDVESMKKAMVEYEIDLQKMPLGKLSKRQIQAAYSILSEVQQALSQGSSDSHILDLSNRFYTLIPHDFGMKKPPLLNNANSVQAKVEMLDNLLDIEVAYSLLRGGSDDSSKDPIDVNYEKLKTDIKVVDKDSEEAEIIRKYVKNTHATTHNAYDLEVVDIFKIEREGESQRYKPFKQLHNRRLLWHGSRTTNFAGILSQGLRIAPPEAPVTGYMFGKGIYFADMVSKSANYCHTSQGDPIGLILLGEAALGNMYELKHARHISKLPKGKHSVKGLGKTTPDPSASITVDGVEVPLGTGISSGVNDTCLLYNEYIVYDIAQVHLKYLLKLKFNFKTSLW

In the case of `O=c1ccc2ccccc2o1` [coumarin, 1,2-benzopyrone], the “ADPRT binding” value (ADPRT) is given as “inhibitory ligand” and the “ADPRT polymerase activity inhibition” value (ADPRT) is given as “known to inhibit ADPRT polymerase activity”.

In the case of 5(7)-nitroso-1(2H)-isoquinolinone [NOQ], the “anti-tumor and anti-HIV activity” value (anti-tumor and anti-HIV) is reported as “highly active”, the “Virus Titer (log ID50)” value (HIV-1; 10 μM) is reported as 1.73 log ID50 and the “inhibition of thymidine uptake” value (H9 cells; 10 μM) is reported as “almost complete inhibition”. The “relative potency” value (H9 cells) was “most potent inhibitor”, the “inhibition of 3H-thymidine uptake” value [1] was “powerfully inhibited” and the “cell killing” value (855-2 cells [2]) was “complete killing”. For the same compound, the IC50 (calf thymus ADPRT; 25° C., 4 minutes, pH 7.5, read-out: I50 (concentration that inhibits ADPRT enzyme activity 50%)) was 13 µM, the “inhibition of cell growth” value (K562 cells; 10 μM) was “almost complete inhibition” and the “relative potency” value (K562 cells) was “most potent inhibitors”. The “relative inhibition” value (855-2 cells [3]) was “somewhat more inhibition than NOBP”, the “inhibition” value (855-2 cells [3]; 10 μM) was “almost complete inhibition” and the “inhibitory effects with different growth factors” value (855-2 cells [3]) was “potent inhibitory effects”.

For `CC[C@]1(O)C[C@H]2CN(CCc3c([nH]c4ccccc34)[C@@](C(=O)OC)(c3cc4c(cc3OC)N(C=O)[C@H]3[C@@](O)(C(=O)OC)[C@H](OC(C)=O)[C@]5(CC)C=CCN6CC[C@]43[C@@H]65)C2)C1` [vincristine, reference compound], the “concentration required for same growth inhibition as 10 μM NOBP” value (855-2 leukemia cells; in vitro) was 100 µM.

In the case of `O=C(O)CN(CCN(CC(=O)O)CC(=O)O)CC(=O)O` [EDTA], the “molar excess required to remove zinc from Zn(HIV1-F1)” value (Zn(HIV1-F1)) is given as 10 fold.

In the case of `NC(=O)c1ccccc1` [benzamide], the “ADPRT polymerase activity inhibition” value (ADPRT) is listed as “known to inhibit ADPRT polymerase activity”.

For `O=Nc1ccc2oc(=O)ccc2c1I` [compound 6, 5-iodo-6-nitroso-1,2-benzopyrone, reference compound], the “biological action, times weaker than 6-N-1,2-benzopyrone” value (anti-tumor and anti-HIV; relative to 6-nitroso-1,2-benzopyrone) was 10 times, the permeation [4] was “poor permeant molecule” and the “inhibition of ADPRT” value (calf thymus ADPRT) was “relatively poor inhibitor”.

With `O=c1ccc2cc([N+](=O)[O-])ccc2o1` [NO2 BP, 6-nitro-1,2-benzopyrone, reference compound] the “Virus Titer (log ID50)” value (HIV-1; 250 μM) was 4.93 log ID50 and the “effectiveness against tumor cells” value [5] was “almost ineffective”.

In the case of `c1ccc2cnccc2c1` [isoquinoline], the “ADPRT polymerase activity inhibition” value (ADPRT) is given as “known to inhibit ADPRT polymerase activity”.

In the case of 3-aminonaphthylhydrazide, the “ADPRT polymerase activity inhibition” value (ADPRT) is given as “known to inhibit ADPRT polymerase activity”.

In the case of `Nc1ccc2oc(=O)ccc2c1` [ABP, 6-amino-1,2-benzopyrone], the “CFU stem cell toxicity” value ([6]; 1 μM) is given as “toxic”, the “Virus Titer (log ID50)” value (HIV-1; 500 μM) is given as 4.50 log ID50 and the “ADPRT binding” value (ADPRT) is given as “binds specifically to ADRPT at the site that also binds to DNA”.

In the case of `Nc1ccc2oc(=O)ccc2c1I` [IABP, 5-iodo-6-amino-1,2-benzopyrone], the “CFU stem cell toxicity” value ([6]; 250 μM) is given as “toxic”, the “Virus Titer (log ID50)” value (HIV-1; 250 μM) is given as 4.66 log ID50 and the “ADPRT polymerase activity inhibition” value (ADPRT) is given as “known ADPRT polymerase activity inhibitors”.

In the case of `O=c1c(O)c(-c2ccc(O)c(O)c2)oc2cc(O)cc(O)c12` [quercetin], the “ADPRT polymerase activity inhibition” value (ADPRT) is listed as “known to inhibit ADPRT polymerase activity”.

In the case of `O=Nc1ccc2oc(=O)ccc2c1` [NOBP, 6-nitroso-1,2-benzopyrone], the “anti-tumor and anti-HIV activity” value (anti-tumor and anti-HIV) is reported as “highly active”, the “Virus Titer (log ID50)” value (HIV-1; 10 μM) is reported as 2.01 log ID50 and the “times more potent than vincristine” value (855-2 leukemia cells; equal concentration) is reported as “about 10 times”. For the same compound, the “inhibition of thymidine uptake” value (H9 cells; 100 μM) was “almost complete inhibition”, the “inhibition of 3H-thymidine uptake” value [1] was “powerfully inhibited” and the “effect on colony formation by normal cells” value [7] was “minimal effect on normal cells”. For the same compound, the “effect on viability of normal cells” value [7] was “not to affect adversely the viability of normal cells”, the “toxicity to normal cells” value [7] was “not toxic to normal cells” and the “cell killing” value (855-2 cells [2]) was “complete killing”. For the same compound, the “ability to form colonies (CFU)” value (HL-60 cells) was “inhibit the ability”, the “effectiveness against tumor cells” value [5] was “highly effective” and the “ability to form colonies (CFU)” value (855-2 cells [8]) was “inhibit the ability”. For the same compound, the “inhibition of cell growth” value (K562 cells; 10 μM) was “almost complete inhibition”, the “inhibition of cell growth” value (K562 cells; 100 μM) was “almost complete inhibition” and the “relative potency” value (K562 cells) was “most potent inhibitors”. For the same compound, the “relative inhibition” value (855-2 cells [3]) was “somewhat more inhibition than NOBA”, the “growth arrest in increasing FCS” value (855-2 cells [3]; 10 μM, increasing FCS concentrations) was “Growth arrest occurs irrespective of the concentration of FCS” and the “inhibition” value (855-2 cells [3]; 10 μM) was “almost complete inhibition”. The “inhibitory effects with different growth factors” value (855-2 cells [3]) was “potent inhibitory effects” and the “Generation of Superoxide by Human Neutrophils” value (Human Neutrophils) was 34.1 ± 14.1 nmol 02^- /hr/10^5 cells.
